Assay results reported in the kinase profiling compilation of Christmann-Franck et al. (2016).

Legend:
Assay in all cases: radiometric filter-binding kinase assay
[1] = system: AKT1 (human), P31749 [S473D]
AURKA (human) = AURKA (human) (UniProt O14965)
BRSK1 (human) = BRSK1 (human) (UniProt Q8TDC3)
BRSK2 (human) = BRSK2 (human) (UniProt Q8IWQ3)
BTK (human) = BTK (human) (UniProt Q06187)
CaMK1 (human) = CaMK1 (human) (UniProt Q14012)
DYRK2 (human) = DYRK2 (human) (UniProt Q92630)
DYRK3 (human) = DYRK3 (human) (UniProt O43781)
EPHA2 (human) = EPHA2 (human) (UniProt P29317)
EPHB1 (human) = EPHB1 (human) (UniProt P54762)
EPHB2 (human) = EPHB2 (human) (UniProt P29323)
EPHB2 (human), sequence (P29323 whole entry, looked up): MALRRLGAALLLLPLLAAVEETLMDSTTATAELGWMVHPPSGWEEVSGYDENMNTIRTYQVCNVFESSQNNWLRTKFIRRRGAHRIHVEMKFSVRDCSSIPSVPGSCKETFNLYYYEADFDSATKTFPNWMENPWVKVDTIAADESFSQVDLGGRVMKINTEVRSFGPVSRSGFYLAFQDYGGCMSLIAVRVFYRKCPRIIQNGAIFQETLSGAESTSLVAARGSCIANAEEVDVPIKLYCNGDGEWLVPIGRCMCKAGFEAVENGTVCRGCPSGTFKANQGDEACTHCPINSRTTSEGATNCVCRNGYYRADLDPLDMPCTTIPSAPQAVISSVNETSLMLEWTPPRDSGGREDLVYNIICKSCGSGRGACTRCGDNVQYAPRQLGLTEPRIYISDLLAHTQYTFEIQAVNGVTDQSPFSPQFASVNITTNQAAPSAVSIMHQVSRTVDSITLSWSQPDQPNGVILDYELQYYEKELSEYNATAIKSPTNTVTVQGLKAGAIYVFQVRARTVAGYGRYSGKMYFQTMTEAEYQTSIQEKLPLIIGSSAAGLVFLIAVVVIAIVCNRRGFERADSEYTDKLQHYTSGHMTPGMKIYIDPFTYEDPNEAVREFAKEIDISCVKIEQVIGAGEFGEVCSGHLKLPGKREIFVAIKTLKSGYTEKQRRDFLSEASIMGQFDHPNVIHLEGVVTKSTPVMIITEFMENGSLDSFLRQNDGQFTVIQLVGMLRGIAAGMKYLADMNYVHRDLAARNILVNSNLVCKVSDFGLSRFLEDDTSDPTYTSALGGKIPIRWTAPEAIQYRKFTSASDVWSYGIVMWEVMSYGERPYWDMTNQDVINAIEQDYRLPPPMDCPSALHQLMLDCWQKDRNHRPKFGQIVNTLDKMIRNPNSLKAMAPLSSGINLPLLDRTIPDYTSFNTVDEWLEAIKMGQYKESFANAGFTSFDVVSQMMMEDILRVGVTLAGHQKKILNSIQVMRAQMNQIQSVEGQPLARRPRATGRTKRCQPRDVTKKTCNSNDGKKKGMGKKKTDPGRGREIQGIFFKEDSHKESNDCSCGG

EPHB4 (human) = EPHB4 (human) (UniProt P54760)
EPHB4 (human), sequence (P54760 whole entry, looked up): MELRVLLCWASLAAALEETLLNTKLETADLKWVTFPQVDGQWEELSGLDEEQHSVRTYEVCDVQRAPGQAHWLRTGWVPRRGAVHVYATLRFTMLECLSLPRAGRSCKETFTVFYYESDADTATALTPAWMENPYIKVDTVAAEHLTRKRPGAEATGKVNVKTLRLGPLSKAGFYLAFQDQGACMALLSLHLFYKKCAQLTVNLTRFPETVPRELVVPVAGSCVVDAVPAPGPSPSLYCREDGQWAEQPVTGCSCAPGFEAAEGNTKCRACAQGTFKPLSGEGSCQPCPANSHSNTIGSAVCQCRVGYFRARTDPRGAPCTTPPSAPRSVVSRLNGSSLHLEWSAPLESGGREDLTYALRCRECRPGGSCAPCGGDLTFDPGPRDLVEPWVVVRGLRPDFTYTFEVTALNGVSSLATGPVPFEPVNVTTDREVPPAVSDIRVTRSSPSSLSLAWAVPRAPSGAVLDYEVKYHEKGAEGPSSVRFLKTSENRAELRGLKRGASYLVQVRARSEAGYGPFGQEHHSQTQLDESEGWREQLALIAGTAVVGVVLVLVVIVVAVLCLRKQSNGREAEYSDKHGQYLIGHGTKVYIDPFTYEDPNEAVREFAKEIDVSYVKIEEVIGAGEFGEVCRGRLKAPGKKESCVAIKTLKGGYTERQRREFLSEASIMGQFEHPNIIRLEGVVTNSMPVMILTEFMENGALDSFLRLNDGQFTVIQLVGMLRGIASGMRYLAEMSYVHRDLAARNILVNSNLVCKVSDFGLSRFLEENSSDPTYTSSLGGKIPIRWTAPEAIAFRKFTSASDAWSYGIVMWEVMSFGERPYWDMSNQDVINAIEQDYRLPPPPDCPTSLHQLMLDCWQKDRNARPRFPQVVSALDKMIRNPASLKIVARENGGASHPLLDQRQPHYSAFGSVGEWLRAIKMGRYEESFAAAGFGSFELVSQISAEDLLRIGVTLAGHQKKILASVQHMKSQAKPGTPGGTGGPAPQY

FLT1 (human) = FLT1 (human) (UniProt P17948)
FLT1 (human), sequence (P17948 whole entry, looked up): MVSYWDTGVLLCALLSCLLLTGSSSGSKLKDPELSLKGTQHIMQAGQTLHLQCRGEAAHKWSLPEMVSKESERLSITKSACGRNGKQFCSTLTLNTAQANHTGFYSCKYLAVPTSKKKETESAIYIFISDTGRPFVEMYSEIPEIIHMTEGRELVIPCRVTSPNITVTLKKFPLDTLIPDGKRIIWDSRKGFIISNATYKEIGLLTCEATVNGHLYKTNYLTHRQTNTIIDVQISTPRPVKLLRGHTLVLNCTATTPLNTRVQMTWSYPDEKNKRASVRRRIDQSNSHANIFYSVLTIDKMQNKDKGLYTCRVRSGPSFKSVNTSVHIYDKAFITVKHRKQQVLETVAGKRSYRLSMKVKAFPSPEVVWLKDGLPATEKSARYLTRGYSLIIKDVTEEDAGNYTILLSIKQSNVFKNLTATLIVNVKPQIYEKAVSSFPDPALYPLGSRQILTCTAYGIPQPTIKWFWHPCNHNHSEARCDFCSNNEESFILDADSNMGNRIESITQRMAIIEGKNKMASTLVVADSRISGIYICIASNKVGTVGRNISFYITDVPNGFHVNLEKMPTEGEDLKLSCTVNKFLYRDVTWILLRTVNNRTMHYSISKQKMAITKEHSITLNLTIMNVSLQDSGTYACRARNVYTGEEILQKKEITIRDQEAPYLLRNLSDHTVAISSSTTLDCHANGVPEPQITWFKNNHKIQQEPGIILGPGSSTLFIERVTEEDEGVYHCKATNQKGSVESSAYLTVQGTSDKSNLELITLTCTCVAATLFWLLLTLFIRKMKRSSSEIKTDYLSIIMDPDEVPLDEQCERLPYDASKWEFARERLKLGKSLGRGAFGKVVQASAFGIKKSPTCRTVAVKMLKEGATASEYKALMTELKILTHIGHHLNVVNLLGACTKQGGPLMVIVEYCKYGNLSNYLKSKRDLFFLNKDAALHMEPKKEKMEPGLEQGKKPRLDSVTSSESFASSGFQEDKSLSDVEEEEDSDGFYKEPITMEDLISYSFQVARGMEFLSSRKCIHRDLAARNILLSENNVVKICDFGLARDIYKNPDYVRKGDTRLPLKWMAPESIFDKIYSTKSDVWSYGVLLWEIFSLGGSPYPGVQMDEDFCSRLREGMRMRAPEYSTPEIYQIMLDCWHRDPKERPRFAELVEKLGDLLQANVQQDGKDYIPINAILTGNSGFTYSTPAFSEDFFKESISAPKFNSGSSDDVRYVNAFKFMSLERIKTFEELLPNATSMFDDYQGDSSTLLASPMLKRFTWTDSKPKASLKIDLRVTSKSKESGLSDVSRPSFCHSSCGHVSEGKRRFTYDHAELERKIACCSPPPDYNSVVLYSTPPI

GCK (human) = GCK (human) (UniProt Q12851)
HIPK1 (human) = HIPK1 (human) (UniProt Q86Z02)
HIPK2 (human) = HIPK2 (human) (UniProt Q9H2X6)
INSR (human) = INSR (human) (UniProt P06213)
JAK2 JH1 JH2 (human) = JAK2 JH1 JH2 (human) (UniProt O60674)
MAP2K1 (human) = MAP2K1 (human) (UniProt Q02750)
MAP3K1 (human) = MAP3K1 (human) (UniProt Q13233)
MAP3K11 (human) = MAP3K11 (human) (UniProt Q16584)
MAP3K5 (human) = MAP3K5 (human) (UniProt Q99683)
MAPK10 (human) = MAPK10 (human) (UniProt P53779)
MAPK11 (human) = MAPK11 (human) (UniProt Q15759)
MAPK8 (human) = MAPK8 (human) (UniProt P45983)
MAPK9 (human) = MAPK9 (human) (UniProt P45984)
MAPKAPK5 (human) = MAPKAPK5 (human) (UniProt Q8IW41)
MARK3 (human) = MARK3 (human) (UniProt P27448)
PIM1 (human) = PIM1 (human) (UniProt P11309)
PIM1 (human), sequence (P11309 whole entry, looked up): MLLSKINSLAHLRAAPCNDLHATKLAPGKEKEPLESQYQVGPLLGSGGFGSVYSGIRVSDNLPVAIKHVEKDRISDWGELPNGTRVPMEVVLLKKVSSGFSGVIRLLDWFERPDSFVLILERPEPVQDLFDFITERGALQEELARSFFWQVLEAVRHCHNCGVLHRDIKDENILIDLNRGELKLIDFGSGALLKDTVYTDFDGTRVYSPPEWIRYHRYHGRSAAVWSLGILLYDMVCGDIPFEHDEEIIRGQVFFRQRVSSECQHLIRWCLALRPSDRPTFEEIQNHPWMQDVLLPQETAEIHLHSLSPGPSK

PRKCA (human) = PRKCA (human) (UniProt P17252)
[2] = system: RPS6KB1 (human), P23443 [T412E]
STK3 (human) = STK3 (human) (UniProt Q13188)
SYK (human) = SYK (human) (UniProt P43405)
TAOK1 (human) = TAOK1 (human) (UniProt Q7L7X3)
TBK1 (human) = TBK1 (human) (UniProt Q9UHD2)
YES1 (human) = YES1 (human) (UniProt P07947)

CaMK1 (human), sequence (Q14012 whole entry, looked up): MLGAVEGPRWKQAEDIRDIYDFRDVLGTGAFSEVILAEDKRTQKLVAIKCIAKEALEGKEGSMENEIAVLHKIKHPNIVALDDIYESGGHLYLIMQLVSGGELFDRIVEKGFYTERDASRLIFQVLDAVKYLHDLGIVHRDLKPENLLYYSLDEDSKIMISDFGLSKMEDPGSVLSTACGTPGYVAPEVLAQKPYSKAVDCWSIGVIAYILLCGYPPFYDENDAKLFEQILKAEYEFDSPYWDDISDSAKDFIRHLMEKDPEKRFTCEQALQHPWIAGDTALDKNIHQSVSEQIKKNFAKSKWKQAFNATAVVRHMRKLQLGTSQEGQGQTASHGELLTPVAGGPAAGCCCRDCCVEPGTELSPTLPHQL

A residual activity ([1]; compound 1.0 µM) of 108%, a residual activity ([1]; compound 10.0 µM) of 102% and a residual activity (AURKA (human); compound 1.0 µM) of 106% were found for `Cc1ccc(=O)n(-c2ccccc2)c1` in this work. It also gave a residual activity (AURKA (human); compound 10.0 µM) of 107%, a residual activity (BRSK1 (human); compound 1.0 µM) of 95% and a residual activity (BRSK1 (human); compound 10.0 µM) of 93%. For the same compound, the residual activity (BRSK2 (human); compound 1.0 µM) was 106%, the residual activity (BRSK2 (human); compound 10.0 µM) was 96% and the residual activity (BTK (human); compound 1.0 µM) was 119%. For the same compound, the residual activity (BTK (human); compound 10.0 µM) was 115%, the residual activity (CaMK1 (human); compound 1.0 µM) was 98% and the residual activity (CaMK1 (human); compound 10.0 µM) was 81%. For the same compound, the residual activity (DYRK2 (human); compound 1.0 µM) was 107%, the residual activity (DYRK2 (human); compound 10.0 µM) was 98% and the residual activity (DYRK3 (human); compound 1.0 µM) was 103%. It also gave a residual activity (DYRK3 (human); compound 10.0 µM) of 93%, a residual activity (EPHA2 (human); compound 1.0 µM) of 113% and a residual activity (EPHA2 (human); compound 10.0 µM) of 111%. The residual activity (EPHB1 (human); compound 10.0 µM) was 104%, the residual activity (EPHB2 (human); compound 1.0 µM) was 120% and the residual activity (EPHB2 (human); compound 10.0 µM) was 109%. It also gave a residual activity (EPHB4 (human); compound 1.0 µM) of 112%, a residual activity (EPHB4 (human); compound 10.0 µM) of 120% and a residual activity (FLT1 (human); compound 1.0 µM) of 100%. It also gave a residual activity (FLT1 (human); compound 10.0 µM) of 107%, a residual activity (GCK (human); compound 1.0 µM) of 106% and a residual activity (GCK (human); compound 10.0 µM) of 108%. It also gave a residual activity (HIPK1 (human); compound 1.0 µM) of 118%, a residual activity (HIPK1 (human); compound 10.0 µM) of 103% and a residual activity (HIPK2 (human); compound 1.0 µM) of 122%. The residual activity (HIPK2 (human); compound 10.0 µM) was 106%, the residual activity (INSR (human); compound 1.0 µM) was 110% and the residual activity (INSR (human); compound 10.0 µM) was 103%. The residual activity (JAK2 JH1 JH2 (human); compound 1.0 µM) was 103%, the residual activity (JAK2 JH1 JH2 (human); compound 10.0 µM) was 90% and the residual activity (MAP2K1 (human); compound 1.0 µM) was 77%. The residual activity (MAP2K1 (human); compound 10.0 µM) was 65%, the residual activity (MAP3K1 (human); compound 1.0 µM) was 106% and the residual activity (MAP3K1 (human); compound 10.0 µM) was 103%. For the same compound, the residual activity (MAP3K11 (human); compound 1.0 µM) was 108%, the residual activity (MAP3K11 (human); compound 10.0 µM) was 98% and the residual activity (MAP3K5 (human); compound 10.0 µM) was 99%. The residual activity (MAPK10 (human); compound 1.0 µM) was 83%, the residual activity (MAPK10 (human); compound 10.0 µM) was 86% and the residual activity (MAPK11 (human); compound 1.0 µM) was 120%. For the same compound, the residual activity (MAPK11 (human); compound 10.0 µM) was 111%, the residual activity (MAPK8 (human); compound 1.0 µM) was 85% and the residual activity (MAPK8 (human); compound 10.0 µM) was 87%. For the same compound, the residual activity (MAPK9 (human); compound 1.0 µM) was 85%, the residual activity (MAPK9 (human); compound 10.0 µM) was 86% and the residual activity (MAPKAPK5 (human); compound 1.0 µM) was 100%. It also gave a residual activity (MAPKAPK5 (human); compound 10.0 µM) of 95%, a residual activity (MARK3 (human); compound 1.0 µM) of 108% and a residual activity (MARK3 (human); compound 10.0 µM) of 108%. For the same compound, the residual activity (PIM1 (human); compound 1.0 µM) was 105%, the residual activity (PIM1 (human); compound 10.0 µM) was 106% and the residual activity (PRKCA (human); compound 10.0 µM) was 118%. The residual activity ([2]; compound 1.0 µM) was 115%, the residual activity ([2]; compound 10.0 µM) was 111% and the residual activity (STK3 (human); compound 1.0 µM) was 112%. It also gave a residual activity (STK3 (human); compound 10.0 µM) of 112%, a residual activity (SYK (human); compound 1.0 µM) of 99% and a residual activity (SYK (human); compound 10.0 µM) of 103%. The residual activity (TAOK1 (human); compound 1.0 µM) was 118%, the residual activity (TAOK1 (human); compound 10.0 µM) was 100% and the residual activity (TBK1 (human); compound 1.0 µM) was 99%. For the same compound, the residual activity (TBK1 (human); compound 10.0 µM) was 91%, the residual activity (YES1 (human); compound 1.0 µM) was 118% and the residual activity (YES1 (human); compound 10.0 µM) was 109%.

A residual activity ([1]; compound 1.0 µM) of 106%, a residual activity ([1]; compound 10.0 µM) of 99% and a residual activity (AURKA (human); compound 1.0 µM) of 95% were found for `O=c1c(O)c(-c2ccc(O)c(O)c2)oc2cc(O)c(O)c(O)c12` in this work. It also gave a residual activity (AURKA (human); compound 10.0 µM) of 28%, a residual activity (BRSK1 (human); compound 1.0 µM) of 82% and a residual activity (BRSK1 (human); compound 10.0 µM) of 7%. The residual activity (BRSK2 (human); compound 1.0 µM) was 71%, the residual activity (BRSK2 (human); compound 10.0 µM) was 13% and the residual activity (BTK (human); compound 1.0 µM) was 61%. It also gave a residual activity (BTK (human); compound 10.0 µM) of 32%, a residual activity (CaMK1 (human); compound 1.0 µM) of 49% and a residual activity (CaMK1 (human); compound 10.0 µM) of 19%. It also gave a residual activity (DYRK2 (human); compound 1.0 µM) of 45%, a residual activity (DYRK2 (human); compound 10.0 µM) of 1% and a residual activity (DYRK3 (human); compound 1.0 µM) of 59%. For the same compound, the residual activity (DYRK3 (human); compound 10.0 µM) was 2%, the residual activity (EPHA2 (human); compound 1.0 µM) was 94% and the residual activity (EPHA2 (human); compound 10.0 µM) was 73%. For the same compound, the residual activity (EPHB1 (human); compound 1.0 µM) was 85%, the residual activity (EPHB2 (human); compound 1.0 µM) was 69% and the residual activity (EPHB4 (human); compound 1.0 µM) was 90%. For the same compound, the residual activity (EPHB4 (human); compound 10.0 µM) was 56%, the residual activity (FLT1 (human); compound 1.0 µM) was 27% and the residual activity (FLT1 (human); compound 10.0 µM) was 7%. The residual activity (GCK (human); compound 1.0 µM) was 93%, the residual activity (GCK (human); compound 10.0 µM) was 23% and the residual activity (HIPK1 (human); compound 1.0 µM) was 93%. For the same compound, the residual activity (HIPK1 (human); compound 10.0 µM) was 11%, the residual activity (HIPK2 (human); compound 1.0 µM) was 62% and the residual activity (HIPK2 (human); compound 10.0 µM) was 19%. For the same compound, the residual activity (INSR (human); compound 1.0 µM) was 86%, the residual activity (INSR (human); compound 10.0 µM) was 62% and the residual activity (JAK2 JH1 JH2 (human); compound 1.0 µM) was 91%. The residual activity (JAK2 JH1 JH2 (human); compound 10.0 µM) was 13%, the residual activity (MAP2K1 (human); compound 1.0 µM) was 84% and the residual activity (MAP2K1 (human); compound 10.0 µM) was 24%. For the same compound, the residual activity (MAP3K1 (human); compound 1.0 µM) was 67%, the residual activity (MAP3K1 (human); compound 10.0 µM) was 74% and the residual activity (MAP3K11 (human); compound 1.0 µM) was 62%. The residual activity (MAP3K11 (human); compound 10.0 µM) was 16%, the residual activity (MAP3K5 (human); compound 1.0 µM) was 118% and the residual activity (MAPK10 (human); compound 1.0 µM) was 107%. The residual activity (MAPK10 (human); compound 10.0 µM) was 89%, the residual activity (MAPK11 (human); compound 1.0 µM) was 101% and the residual activity (MAPK11 (human); compound 10.0 µM) was 90%. The residual activity (MAPK8 (human); compound 1.0 µM) was 93%, the residual activity (MAPK8 (human); compound 10.0 µM) was 93% and the residual activity (MAPK9 (human); compound 1.0 µM) was 106%. For the same compound, the residual activity (MAPK9 (human); compound 10.0 µM) was 100%, the residual activity (MAPKAPK5 (human); compound 1.0 µM) was 87% and the residual activity (MAPKAPK5 (human); compound 10.0 µM) was 1%. The residual activity (MARK3 (human); compound 1.0 µM) was 51%, the residual activity (MARK3 (human); compound 10.0 µM) was 6% and the residual activity (PIM1 (human); compound 1.0 µM) was 37%. The residual activity (PIM1 (human); compound 10.0 µM) was 7%, the residual activity (PRKCA (human); compound 1.0 µM) was 99% and the residual activity (PRKCA (human); compound 10.0 µM) was 80%. For the same compound, the residual activity ([2]; compound 1.0 µM) was 104%, the residual activity ([2]; compound 10.0 µM) was 14% and the residual activity (STK3 (human); compound 1.0 µM) was 58%. The residual activity (STK3 (human); compound 10.0 µM) was 9%, the residual activity (SYK (human); compound 1.0 µM) was 89% and the residual activity (SYK (human); compound 10.0 µM) was 93%. For the same compound, the residual activity (TAOK1 (human); compound 1.0 µM) was 94%, the residual activity (TBK1 (human); compound 1.0 µM) was 54% and the residual activity (TBK1 (human); compound 10.0 µM) was 64%. For the same compound, the residual activity (YES1 (human); compound 1.0 µM) was 42% and the residual activity (YES1 (human); compound 10.0 µM) was 9%.
